Data taken from article PMC5748751, “Study of Structure and Permeability Relationship of Flavonoids in Caco-2 Cells” (Nutrients, 2017).
Read-outs that look alike come from different tables or passages of the source. Marks after values point to notes of the source that are not given here.

How the values were obtained:
[1] = Stability of flavonoids in D-Hank's buffer relative to methanol; format: physicochemical; conditions: 20 μM flavonoid, HPLC peak area in D-Hank's / peak area in methanol × 100%
Experimental: The relative stability was expressed as the relative appearance of flavonoids in different solvents. Each flavonoid (20 μM) was dissolved in two different solvents, D-Hank’s and methanol. […] Relative concentration in D-Hank’s (%) = Peak area in D-Hank’s/Peak area in methanol × 100%(3)

[2] = Permeability (bidirectional transport) of flavonoids in Caco-2 cell monolayers; format: in vitro ADME; conditions: human; for Papp A→B at 60 min, 40 μM: Caco-2, apical to basolateral; for Papp A→B at 60 min, 40 μM / Papp B→A at 60 min, 40 μM: incubation 60 min, 37 °C, D-Hank's pH 7.4, mean ± SD, n = 3–6; for Papp B→A at 60 min, 40 μM: Caco-2, basolateral to apical; for efflux ratio at 60 min, 40 μM: pH 7.4, Caco-2 monolayer, read-out: Ratiop (ratio of Papp B to A to Papp A to B); for Papp at 1 h, 40 μM: Caco-2 monolayer
Experimental: Caco-2 cells were cultured in MEM supplemented with 10% FBS, 1% NEAA, penicillin (100 U/mL) and streptomycin (100 μg/mL) in an atmosphere of 5% CO2 and 90% relative humidity at 37 °C. All cells used in this study were between passages 35 and 45 [16].
Caco-2 cells were seeded at a density of about 8 × 10^4 cells/cm^2 on a 12 wells Millicell hanging insert and left to grow for 19–21 days to reach confluence. Culture medium was replaced every other day for 14 days and daily thereafter. The integrity and transport ability of the Caco-2 cells monolayer were examined by measuring the trans-epithelial electrical resistance (TEER) with a Millicell voltammeter (Millicell ERS-2, Merck Millipore, Billerica, MA, USA) and running standard assays using Lucifer yellow CH as paracellular flux marker. […] Differentiation of Caco-2 cells was checked after 4 and 12 days by determining the activity of alkaline phosphatase with an assay kit (Nanjing Jiancheng Bioengineering Institute, Nanjing, China) and after 21 days transmission electron microscopy was performed on Caco-2 monolayer to evaluate differentiation.
The Caco-2 cell monolayer was washed with D-Hank’s buffer (pH 7.4). Then, the flavonoid (40 μM) was added to either the apical (AP, 0.4 mL) or basolateral (BL, 1.95 mL) side, while the receiving chamber contained the corresponding volume of D-Hank’s buffer and incubated for 1 h at 37 °C. Solutions from both AP and BL sides of Caco-2 cell monolayer were collected and immediately frozen, lyophilized and preserved at −80 °C for high performance liquid chromatography (HPLC) analysis. Papp was calculated from Equation (1), where ΔQ/Δt is the rate of the flavonoid on the accepting chamber (μM/s), A is the surface area of the hanging insert (cm^2) and C0 is the initial concentration of tested flavonoid in donating chamber (μM/mL).(1) Papp=ΔQ/Δt/AC0

[3] = system: Caco-2 cell monolayer; experiment: Cellular accumulation (CA) of flavonoids in Caco-2 cell monolayer; conditions: for Ratioc (ratio of CA B to A to CA A to B): Caco-2 monolayer; for CA A to B: accumulated in cell monolayer after transport apical to basolateral; for CA A to B / CA B to A: 40 μM, 1 h, normalized to cellular protein, mean ± SD, n = 3; for CA B to A: accumulated in cell monolayer after transport basolateral to apical; for CA: both sides (CA A to B and CA B to A)
Experimental: (§1) After the collection of samples from both AP and BL sides, the hanging insert was rinsed twice with ice-cold D-Hank’s buffer to stop further transport, and lysed with 0.1% Triton X-100 in D-Hank’s buffer then placed in an ultrasonic bath for 15 min. Cell lysates were collected and centrifuged at 7000× g for 10 min. Supernatants were analyzed by BCA kit (Dingguochangsheng Biotechnology, Beijing, China) for protein content. After protein content assay, supernatants were immediately frozen, lyophilized and preserved at −80 °C. The flavonoid concentration in lysis solution was determined by HPLC and normalized with cellular protein content.
(§2) To determine both the permeability and CA of flavonoids in Caco-2 cells, the lyophilized samples were dissolved in running 120 to 200 μL methanol, and centrifuged at 7000× g for 5 min. Aliquot of 20 μL of the supernatant solution was used for assay using Waters e2695 HPLC system (Milford, MA, USA) fitted with an Amethyst C18-H column (250 mm × 4.6 mm i.d., 5 μm; Sepax, Newark, DE, USA). The mobile phase consisted of A (0.01 M phosphoric acid (H3PO4))/B (acetonitrile) with 1.0 mL/min flow rate. […] Peak area measurement was used to obtain standard calibration curves to determine concentration of each flavonoid.

[4] = Cell viability (MTT) assay of flavonoids in Caco-2 cells; format: cell-based; conditions: human
Experimental: The cytotoxicity of flavonoids and colchicine was evaluated by MTT assay. The cells were grown in 96-well plates at a density of 1 × 10^4 cells/well. After incubation with 40 μM flavonoid for 24 h, the cells were further incubated with an MTT solution (0.5 mg/mL) for 4 h at 37 °C. Finally, after removal of the supernatant, 150 μL dimethyl sulphoxide was added to each well to dissolve crystallized MTT. Absorbance was read at 570 nm with a multiskan spectrum microplate reader (Thermo Labsystems, Waltham, MA, USA). The percentage cell viability relative to that of the control cells was used as the cytotoxicity measure.

[5] = Recovery (mass balance) of flavonoids during Caco-2 transport assay; format: in vitro ADME; conditions: human, Caco-2, mass balance, both sides of insert plus cells
Experimental: The recovery of the flavonoid glycosides during the transport assays was determined by mass balance and was measured as total amount of the flavonoids on both sides of the insert and in the Caco-2 cells.

[6] = system: Caco-2 cell monolayer; conditions: human, Caco-2, 1 h, 40 μM, pH 7.4
Experimental: as §1, §2

[7] = pH 7.4, direction not specified (bilateral)
[8] = transport apical to basolateral, read-out: Recovery (A to B, %)
[9] = transport basolateral to apical, read-out: Recovery (B to A, %)
[10] = Caco-2, pH 7.4, as stated in text, direction not specified (bilateral)

Structure (SMILES)	Relative concentration of flavonoids, D-Hank's/methanol (%) [1]	Papp A→B at 60 min, 40 μM [2] [×10⁻⁶ cm/s]	Papp B→A at 60 min, 40 μM [2] [×10⁻⁶ cm/s]	efflux ratio at 60 min, 40 μM [2]	Ratioc (ratio of CA B to A to CA A to B) [3]	CA A to B [3] [µmol/g]	CA B to A [3]	viability at 24 h, 40 μM [4] [%]	Relative concentration of flavonoids, D-Hank's/methanol (%) ([1]; listed as chrysin)	Papp at 1 h, 40 μM [2, 7] [×10⁻⁶ cm/s]	CA [3]	recovery [5, 8] [%]	recovery [5, 9] [%]	Papp at 1 h, 40 μM [2, 10] [×10⁻⁶ cm/s]	CA [6] [µmol/g]
O=c1cc(-c2ccccc2)oc2ccccc12 [Compound 1, Flavone]	60.10%	22.4 ± 1.37	21.7 ± 1.21	0.97	1.65	1.932 ± 0.051	3.183 ± 0.504 ^a μmol/g	96.3 ± 9.79	–	–	–	–	–	–	–
COc1ccc(-c2cc(=O)c3c(OC)c(OC)c(OC)c(OC)c3o2)cc1 [Compound 2, Tangertin]	12.09%	21.9 ± 0.585	23.9 ± 0.45	1.1	0.90	2.706 ± 0.174	2.423 ± 0.543 µmol/g	97.5 ± 3.53	–	–	–	–	–	–	–
O=c1cc(-c2ccc(O)c(O)c2)oc2cc(O)cc(O)c12 [Compound 5, Luteolin]	87.51%	10.1 ± 7.33	21.4 ± 2.12	2.12	2.23	3.876 ± 0.741	8.639 ± 1.275 ^b μmol/g	101 ± 4.19	–	–	–	–	–	–	–
O=c1cc(-c2ccc(O)cc2)oc2cc(O)cc(O)c12 [Compound 6, Apigenin]	41.76%	17.1 ± 1.72	16.9 ± 1.02	0.99	1.72	4.415 ± 0.467	7.610 ± 0.694 ^b μmol/g	101 ± 4.56	–	–	–	–	–	–	–
O=c1cc(-c2ccccc2)oc2cc(O)cc(O)c12 [Compound 7, Chrysin]	47.63%	6.78 ± 0.12	8.41 ± 0.62	1.24	2.26	3.902 ± 0.251	8.828 ± 0.213 ^b μmol/g	103 ± 4.94	less than 50%	–	–	–	–	–	–
O=c1c(O)c(-c2ccc(O)c(O)c2)oc2cc(O)cc(O)c12 [Compound 10, Quercetin]	52.10%	2.55 ± 1.45	4.68 ± 0.41	1.84	–	–	–	102 ± 5.19	–	–	–	–	–	–	–
O=c1c(O)c(-c2cc(O)c(O)c(O)c2)oc2cc(O)cc(O)c12 [Compound 14, Myricetin]	lower than 40%	0.29 ± 0.01	0.44 ± 0.01	1.5	–	–	–	101 ± 3.15	–	< 0.5	not detected	–	–	–	–
C[C@@H]1O[C@@H](Oc2c(-c3ccc(O)c(O)c3)oc3cc(O)cc(O)c3c2=O)[C@H](O)[C@H](O)[C@H]1O [Compound 16, Quercitrin]	116.67%	4.24 ± 1.25	5.96 ± 1.2	–	–	–	–	98.4 ± 3.86	–	< 6	not detected	90.7 ± 8.85	76.8 ± 9.36	–	–
C[C@@H]1O[C@@H](OC[C@H]2O[C@@H](Oc3c(-c4ccc(O)c(O)c4)oc4cc(O)cc(O)c4c3=O)[C@H](O)[C@@H](O)[C@@H]2O)[C@H](O)[C@H](O)[C@H]1O [Compound 17, Rutin]	66.82%	4.04 ± 0.07	4.28 ± 0.44	–	–	–	–	106 ± 5.48	–	–	not detected	98.2 ± 4.74	97 ± 1.67	< 6	–
COc1ccc([C@@H]2CC(=O)c3c(O)cc(O)cc3O2)cc1O [Compound 18, Hesperetin]	115.83%	23.5 ± 0.85	27.9 ± 2.76	1.19	1.27	1.293 ± 0.086	1.644 ± 0.300 µmol/g	100 ± 2.7	–	–	–	–	–	> 20	–
O=C1C[C@@H](c2ccc(O)cc2)Oc2cc(O)cc(O)c21 [Compound 19, Naringenin]	113.93%	32.1 ± 2.98	35.3 ± 1.16	1.1	2.29	1.935 ± 0.305	4.436 ± 0.299 ^b μmol/g	95.6 ± 3.47	–	–	< 5 µmol/g	–	–	> 30	–
O=C1C[C@@H](c2ccc(O)cc2)Oc2cc(O)ccc21 [Compound 21, Liquiritigenin]	–	31 ± 0.8	37 ± 1.97	–	–	0.635 ± 0.146	1.234 ± 0.249 ^a μmol/g	101 ± 4.27	–	–	–	–	–	> 30	< 5
O=c1c(-c2ccc(O)cc2)coc2c([C@@H]3O[C@H](CO)[C@@H](O)[C@H](O)[C@H]3O)c(O)ccc12 [Compound 24, Puerarin]	30.31%	2.25 ± 0.96	2.7 ± 0.41	–	–	–	–	105 ± 6.13	–	–	not detected	87.4 ± 3.31	85.25 ± 0.6	< 6	–
